From patent US10450270B2, “Glyoxamide substituted pyrrolamide derivatives and the use thereof as medicaments for the treatment of hepatitis B” (Janssen Sciences Ireland UC, priority 2013, dated 2019)

What was measured:
HBV = experiment: Anti-HBV activity, HepG2.117 inducible HBV producing cell line (Tet-off), intracellular HBV DNA by realtime PCR; format: cell-based; conditions: Hepatitis B virus, 72 h; HepG2.117 cells, 3 days of treatment, intracellular HBV DNA; read-out: HepG2 117 EC50
[1] = Cytotoxicity in HepG2 cells, Resazurin viability assay; conditions: human, HepG2 cells

| SMILES | EC50 (HBV) [nM] | CC50 at 4 days [1] [nM] |
| --- | --- | --- |
| CCCC[C@@H](CO)NC(=O)C(=O)c1cc(C(=O)Nc2ccc(F)c(C#N)c2)n(C)c1C [Compound 63, N-(3-cyano-4-fluoro-phenyl)-4-[2-[[(1S)-1-(hydroxymethyl)pentyl]amino]-2-oxo-acetyl]-1,5-dimethyl-pyrrole-2-carboxamide] | 210 | > 25000 |
| Cc1c(C(=O)C(=O)NC(C)(C)CCO)cc(C(=O)Nc2ccc(F)c(C#N)c2)n1C [Compound 81, N-(3-cyano-4-fluoro-phenyl)-4-[2-[(3-hydroxy-1,1-dimethyl-propyl)amino]-2-oxo-acetyl]-1,5-dimethyl-pyrrole-2-carboxamide] | 12 | > 25000 |
| C[C@@H](NC(=O)C(=O)c1c(F)c(C(=O)Nc2ccc(F)c(C#N)c2)n(C)c1Cl)C(F)(F)F [Compound 91, 5-chloro-N-(3-cyano-4-fluoro-phenyl)-3-fluoro-1-methyl-4-[2-oxo-2-[[(1R)-2,2,2-trifluoro-1-methyl-ethyl]amino]acetyl]pyrrole-2-carboxamide] | 300 | > 25000 |
| C[C@@H](NC(=O)C(=O)c1c(Br)c(C(=O)Nc2ccc(F)c(C#N)c2)n(C)c1Br)C(F)(F)F [Compound 27, 3,5-dibromo-N-(3-cyano-4-fluoro-phenyl)-1-methyl-4-[2-oxo-2-[[(1R)-2,2,2-trifluoro-1-methyl-ethyl]amino]acetyl]pyrrole-2-carboxamide] | 5 | > 25000 |
| CC[C@@H](NC(=O)C(=O)c1c(Cl)c(C(=O)Nc2ccc(F)c(C#N)c2)n(C)c1C)C(F)(F)F [Compound 42, 3-chloro-N-(3-cyano-4-fluoro-phenyl)-1,5-dimethyl-4-[2-oxo-2-[[(1R)-1-(trifluoromethyl)propyl]amino]acetyl]pyrrole-2-carboxamide] | 2 | > 25000 |
| Cc1c(C(=O)C(=O)NC2(C(F)(F)F)CCC2)c(Cl)c(C(=O)Nc2ccc(F)c(C#N)c2)n1C [Compound 43, 3-chloro-N-(3-cyano-4-fluoro-phenyl)-1,5-dimethyl-4-[2-oxo-2-[[1-(tri-fluoromethyl)cyclobutyl]amino]acetyl]pyrrole-2-carboxamide] | 3 | > 25000 |
| Cc1c(C(=O)C(=O)NC(C)C)c(Cl)c(C(=O)Nc2ccc(F)c(C#N)c2)n1C [Compound 45, 3-chloro-N-(3-cyano-4-fluoro-phenyl)-4-[2-(isopropylamino)-2-oxo-acetyl]-1,5-dimethyl-pyrrole-2-carboxamide] | 6 | > 25000 |
| C[C@@H](NC(=O)C(=O)c1cn(C)c(C(=O)Nc2ccc(F)c(C#N)c2)c1Br)C(F)(F)F [Compound 26, 3-bromo-N-(3-cyano-4-fluoro-phenyl)-1-methyl-4-[2-oxo-2-[[(1R)-2,2,2-trifluoro-1-methyl-ethyl]amino]acetyl]pyrrole-2-carboxamide] | 70 | > 25000 |
| CCCC[C@H](CO)NC(=O)C(=O)c1cc(C(=O)Nc2ccc(F)c(C#N)c2)n(C)c1C [Compound 75, N-(3-cyano-4-fluoro-phenyl)-4-[2-[[(1R)-1-(hydroxymethyl)pentyl]amino]-2-oxo-acetyl]-1,5-dimethyl-pyrrole-2-carboxamide] | 14 | > 25000 |
| Cc1c(C(=O)C(=O)NC2(C)COC2)cc(C(=O)Nc2ccc(F)c(C#N)c2)n1C [Compound 60, N-(3-cyano-4-fluoro-phenyl)-1,5-dimethyl-4-[2-[(3-methyloxetan-3-yl)-amino]-2-oxo-acetyl]pyrrole-2-carboxamide] | 11 | > 25000 |
| Cc1c(C(=O)C(=O)N[C@H](C)C(C)(F)F)cc(C(=O)Nc2ccc(F)c(C#N)c2)n1C [Compound 54, N-(3-cyano-4-fluoro-phenyl)-4-[2-[[(1R)-2,2-difluoro-1-methyl-propyl]-amino]-2-oxo-acetyl]-1,5-dimethyl-pyrrole-2-carboxamide] | 10 | > 25000 |
| C[C@@H](NC(=O)C(=O)c1cc(C(=O)Nc2ccc(F)c(C#N)c2)n(C)c1C1CC1)C(F)(F)F [Compound 61, N-(3-cyano-4-fluoro-phenyl)-5-cyclopropyl-1-methyl-4-[2-oxo-2-[[(1R)-2,2,2-trifluoro-1-methyl-ethyl]amino]acetyl]pyrrole-2-carboxamide] | 120 | > 25000 |
| Cc1c(C(=O)C(=O)NC2(C)COC2)c(Cl)c(C(=O)Nc2ccc(F)c(C#N)c2)n1C [Compound 44, 3-chloro-N-(3-cyano-4-fluoro-phenyl)-1,5-dimethyl-4-[2-[(3-methyloxetan-3-yl)amino]-2-oxo-acetyl]pyrrole-2-carboxamide] | 3 | > 25000 |
| Cn1c(Cl)c(C(=O)C(=O)NC2(C(F)(F)F)CCC2)c(F)c1C(=O)Nc1ccc(F)c(C#N)c1 [Compound 90, 5-chloro-N-(3-cyano-4-fluoro-phenyl)-3-fluoro-1-methyl-4-[2-oxo-2-[[1-(trifluoromethyl)cyclobutyl]amino]acetyl]pyrrole-2-carboxamide] | 32 | > 25000 |
| C[C@@H](NC(=O)C(=O)c1cc(C(=O)Nc2ccc(F)c(C#N)c2)n(C)c1)C(F)(F)F [Compound 64, N-(3-cyano-4-fluoro-phenyl)-1-methyl-4-[2-oxo-2-[[(1R)-2,2,2-trifluoro-1-methyl-ethyl]amino]acetyl]pyrrole-2-carboxamide] | 66 | > 25000 |
| C[C@@H](NC(=O)C(=O)c1c(Cl)c(C(=O)Nc2ccc(F)c(C#N)c2)n(C)c1Cl)C(F)(F)F [Compound 86, 3,5-dichloro-N-(3-cyano-4-fluoro-phenyl)-1-methyl-4-[2-oxo-2-[[(1R)-2,2,2-trifluoro-1-methyl-ethyl]amino]acetyl]pyrrole-2-carboxamide] | 6 | > 25000 |
| C[C@@H](NC(=O)C(=O)c1cn(C)c(C(=O)Nc2ccc(F)c(C#N)c2)c1F)C(C)(F)F [Compound 93, N-(3-cyano-4-fluoro-phenyl)-4-[2-[[(1R)-2,2-difluoro-1-methylpropyl]-amino]-2-oxo-acetyl]-3-fluoro-1-methyl-pyrrole-2-carboxamide] | 15 | > 25000 |
| Cc1c(C(=O)C(=O)NC2(C)CC(F)(F)C2)c(F)c(C(=O)Nc2ccc(F)c(C#N)c2)n1C [Compound 37, N-(3-cyano-4-fluoro-phenyl)-4-[2-[(3,3-difluoro-1-methyl-cyclobutyl)-amino]-2-oxo-acetyl]-3-fluoro-1,5-dimethyl-pyrrole-2-carboxamide] | 2 | > 25000 |
| Cc1c(C(=O)C(=O)N[C@H](C)C(C)(F)F)c(Cl)c(C(=O)Nc2ccc(F)c(C#N)c2)n1C [Compound 46, 3-chloro-N-(3-cyano-4-fluoro-phenyl)-4-[2-[[(1R)-2,2-difluoro-1-methyl-propyl]amino]-2-oxo-acetyl]-1,5-dimethyl-pyrrole-2-carboxamide] | 3 | > 25000 |
| Cc1c(C(=O)C(=O)N[C@H]2CCC[C@@H]2O)cc(C(=O)Nc2ccc(F)c(C#N)c2)n1C [Compound 65, N-(3-cyano-4-fluoro-phenyl)-4-[2-[[(1S,2S)-2-hydroxycyclopentyl]amino]-2-oxo-acetyl]-1,5-dimethyl-pyrrole-2-carboxamide] | 160 | > 25000 |
